Results published in PMC6156078, “Thalidomide promotes degradation of SALL4, a transcription factor implicated in Duane Radial Ray syndrome” (eLife, 2018).
Entries after “also recorded” stand apart in the source; their conditions may differ.

Legend:
ZFP91 = ZFP91 (Homo sapiens, UniProt Q96JP5+Q96SW2); test: TMT proteomics SK-N-DZ cells: ZFP91 abundance; details: 5 h vs DMSO, pomalidomide 1 µM, lenalidomide 5 µM, CC-220 0.1 µM, dBET57 1 µM
MRPS5 = test: TMT proteomics SK-N-DZ cells: MRPS5 abundance; details: 5 h vs DMSO, CC-220 0.1 µM
CISD2 = test: TMT proteomics SK-N-DZ cells: CISD2 abundance; details: 5 h vs DMSO, CC-220 0.1 µM
MRPL3 = test: TMT proteomics SK-N-DZ cells: MRPL3 abundance; details: 5 h vs DMSO, CC-220 0.1 µM
[1] = tested on: IMiD-dependent neo-substrates; test: TMT proteomics profiling of IMiD-dependent neo-substrates (hESC, Kelly, SK-N-DZ, MM1s); type: cell-based, human; details: SK-N-DZ cells, 0.1 µM CC-220, 5 h (Figure 1—figure supplement 1C)
Description: We established a mass spectrometry-based workflow (Figure 1—figure supplement 1A) to detect IMiD-induced protein degradation in hESC.
Proteins were precipitated using methanol/chloroform.

ATP5C1 = test: TMT proteomics SK-N-DZ cells: ATP5C1 abundance; details: 5 h vs DMSO, CC-220 0.1 µM
IMiD-dependent targets = test: Rescue proteomics: pomalidomide with MLN4924 co-treatment in SK-N-DZ cells; details: 1 µM pomalidomide + 5 µM MLN4924, 5 h
SALL4 = test: Western blot of SALL4: thalidomide with proteasome/NEDD8/UBA1 inhibitor co-treatment; details: Kelly, HEK293T, SK-N-DZ cells; thalidomide + 5 µM bortezomib, 5 µM MLN4924 or 0.5 µM MLN7243, 24 h
[2] = target: DDB1∆B-CRBN_(Spy-BodipyFL), Q16531;Q96SW2; test: TR-FRET; details: terbium-streptavidin 4 nM, read off a plot
[3] = value at the highest DDB1∆B-CRBN concentration (about 12.8 µM), SALL4 ZnF1-2 100 nM, thalidomide 50 µM, parent: est. 45

Chain of ZFP91 (Q96JP5 2-570 limits assumed): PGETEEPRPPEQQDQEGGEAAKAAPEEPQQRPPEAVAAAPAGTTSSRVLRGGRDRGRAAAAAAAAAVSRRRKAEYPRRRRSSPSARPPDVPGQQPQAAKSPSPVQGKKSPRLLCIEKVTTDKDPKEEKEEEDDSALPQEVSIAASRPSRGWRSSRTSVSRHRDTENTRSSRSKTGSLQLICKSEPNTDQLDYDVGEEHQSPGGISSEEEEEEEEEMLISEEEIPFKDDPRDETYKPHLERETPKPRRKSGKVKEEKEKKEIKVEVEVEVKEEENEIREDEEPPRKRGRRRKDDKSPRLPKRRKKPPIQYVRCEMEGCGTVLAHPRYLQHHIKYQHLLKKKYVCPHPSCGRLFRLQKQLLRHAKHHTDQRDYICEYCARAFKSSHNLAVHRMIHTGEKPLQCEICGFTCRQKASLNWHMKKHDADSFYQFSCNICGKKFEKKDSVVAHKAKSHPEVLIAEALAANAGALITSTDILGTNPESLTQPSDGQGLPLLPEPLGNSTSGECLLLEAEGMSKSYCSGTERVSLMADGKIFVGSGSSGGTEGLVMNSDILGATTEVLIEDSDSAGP
Chain of ZFP91 (Q96SW2 whole entry): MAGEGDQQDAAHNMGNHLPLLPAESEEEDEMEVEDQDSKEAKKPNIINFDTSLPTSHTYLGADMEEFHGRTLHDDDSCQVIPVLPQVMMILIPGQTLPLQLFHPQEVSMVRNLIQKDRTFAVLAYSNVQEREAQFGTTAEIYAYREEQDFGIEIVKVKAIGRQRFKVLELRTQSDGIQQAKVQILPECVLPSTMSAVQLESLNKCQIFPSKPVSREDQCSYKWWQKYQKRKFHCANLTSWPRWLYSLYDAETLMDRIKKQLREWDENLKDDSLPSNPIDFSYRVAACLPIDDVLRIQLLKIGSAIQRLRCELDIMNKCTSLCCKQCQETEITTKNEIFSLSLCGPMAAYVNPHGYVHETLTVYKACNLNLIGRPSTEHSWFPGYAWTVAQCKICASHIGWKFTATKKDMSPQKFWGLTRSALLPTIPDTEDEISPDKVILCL
Chain of ZFP91 (Q16531 whole entry partner): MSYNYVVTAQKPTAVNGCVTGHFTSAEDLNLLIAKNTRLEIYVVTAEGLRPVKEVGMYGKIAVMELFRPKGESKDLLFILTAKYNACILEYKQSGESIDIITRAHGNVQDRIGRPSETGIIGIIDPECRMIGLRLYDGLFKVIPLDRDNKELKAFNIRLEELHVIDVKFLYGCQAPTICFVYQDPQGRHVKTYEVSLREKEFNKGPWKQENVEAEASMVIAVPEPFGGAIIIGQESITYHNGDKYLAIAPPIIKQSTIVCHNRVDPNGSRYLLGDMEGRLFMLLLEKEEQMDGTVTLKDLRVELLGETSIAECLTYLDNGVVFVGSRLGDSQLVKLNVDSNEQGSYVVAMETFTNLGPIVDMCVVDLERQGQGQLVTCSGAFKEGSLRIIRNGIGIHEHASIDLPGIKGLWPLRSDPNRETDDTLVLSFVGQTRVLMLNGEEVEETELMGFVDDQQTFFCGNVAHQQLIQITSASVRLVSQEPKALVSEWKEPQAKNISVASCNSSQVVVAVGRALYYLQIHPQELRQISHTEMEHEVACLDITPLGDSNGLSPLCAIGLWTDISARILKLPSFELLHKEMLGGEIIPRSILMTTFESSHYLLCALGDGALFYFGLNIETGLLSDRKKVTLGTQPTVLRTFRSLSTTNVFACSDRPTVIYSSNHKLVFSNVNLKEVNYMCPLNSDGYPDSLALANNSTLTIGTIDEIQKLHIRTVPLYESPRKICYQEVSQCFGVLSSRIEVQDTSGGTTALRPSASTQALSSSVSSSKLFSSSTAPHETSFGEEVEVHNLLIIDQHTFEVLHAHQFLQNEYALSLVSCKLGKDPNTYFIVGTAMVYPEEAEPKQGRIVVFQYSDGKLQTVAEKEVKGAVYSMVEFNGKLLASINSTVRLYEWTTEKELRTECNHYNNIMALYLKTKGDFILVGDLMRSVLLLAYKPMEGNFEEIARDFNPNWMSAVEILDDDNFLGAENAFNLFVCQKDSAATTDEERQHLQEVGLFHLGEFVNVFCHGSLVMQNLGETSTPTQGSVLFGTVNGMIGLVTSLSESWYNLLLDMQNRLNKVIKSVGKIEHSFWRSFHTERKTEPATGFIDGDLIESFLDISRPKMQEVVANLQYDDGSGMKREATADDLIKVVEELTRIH

Question: With `O=C1CC[C@H](N2Cc3c(OCc4ccc(CN5CCOCC5)cc4)cccc3C2=O)C(=O)N1` [CC-220] as the molecule, how does the “logFC ZFP91” value (ZFP91) read?
Answer: Its value is -2.809.

Question: And the “logFC MRPS5” value (MRPS5)?
Answer: The value was -0.1562.

Question: And the “logFC CISD2” value (CISD2)?
Answer: The value was -0.1946.

Question: What about the “logFC MRPL3” value (MRPL3) of the same molecule?
Answer: The value was -0.1878.

Question: What about the “induction of degradation of ZnF targets including SALL4” value [1] of the same molecule?
Answer: Its value is “effective inducers of ZnF targets including SALL4 degradation”.

Question: And the “logFC ATP5C1” value (ATP5C1)?
Answer: The value was -0.1591.

Question: Which “effect of co-treatment on IMiD-induced degradation of targets” value (IMiD-dependent targets) does the source give for `NS(=O)(=O)OC[C@@H]1C[C@@H](n2ccc3c(N[C@H]4CCc5ccccc54)ncnc32)C[C@@H]1O` [MLN4924] here?
Answer: Its value is “abrogated the degradation of all IMiD-dependent targets; also recorded: fully abrogated”.

Question: And the “effect of co-treatment on IMiD-induced SALL4 degradation” value (SALL4)?
Answer: The value was “abrogated”.

Question: For `NS(=O)(=O)OC[C@H]1C[C@@H](Nc2ccnc3cc(-c4cccc(SC(F)(F)F)c4)nn23)[C@H](O)[C@@H]1O` [MLN7243], which “effect of co-treatment on IMiD-induced SALL4 degradation” value (SALL4) is on record?
Answer: Its value is “abrogated”.

Question: Which “effect of co-treatment on IMiD-induced SALL4 degradation” value (SALL4) does the source give for `CC(C)C[C@H](NC(=O)[C@H](Cc1ccccc1)NC(=O)c1cnccn1)B(O)O` [bortezomib] here?
Answer: Its value is “abrogated”.

Question: How did the response [2, 3] turn out when “_(Strep-BirA)hsSALL4_(378-438) (ZnF1-2) (from UniProt Q9UJQ4) G416N” was run?
Answer: Its response is 6 520/490.

Question: Which results are given for “_(Strep-BirA)hsSALL4_(378-438) (ZnF1-2) (from UniProt Q9UJQ4) S388N”?
Answer: response [2, 3]: 45 520/490; response ([2]; value at the highest lenalidomide dose (log[Len] about -4.4 M), DDB1∆B-CRBN 200 nM, SALL4 ZnF1-2 100 nM, parent: est. 2.6): 1.6 520/490; response ([2]; value at the highest pomalidomide dose (log[Pom] about -4.4 M), DDB1∆B-CRBN 200 nM, SALL4 ZnF1-2 100 nM, parent: est. 4.1): 2.6 520/490; response ([2]; value at the highest thalidomide dose (log[Thal] about -4.4 M), DDB1∆B-CRBN 200 nM, SALL4 ZnF1-2 100 nM, parent: est. 3.7): 2.2 520/490

Question: How did the response ([2]; value at the highest lenalidomide dose (log[Len] about -4.4 M), DDB1∆B-CRBN 200 nM, SALL4 ZnF2 100 nM, parent: est. 0.47) turn out when “_(Strep-BirA)hsSALL4_(402-436) (ZnF2) (from UniProt Q9UJQ4) G416A” was run?
Answer: Its response is 0.075 520/490.

Question: And the response ([2]; value at the highest pomalidomide dose (log[Pom] about -4.4 M), DDB1∆B-CRBN 200 nM, SALL4 ZnF2 100 nM, parent: est. 0.97)?
Answer: The response was 0.09 520/490.

Question: How did the response ([2]; value at the highest thalidomide dose (log(Thal) about -4.5 M), DDB1∆B-CRBN 1 µM, SALL4 ZnF4 100 nM, parent: est. 0.27) turn out when “_(Strep-BirA)hsSALL4_(590-618) (ZnF4) (from UniProt Q9UJQ4) Q595H” was run?
Answer: The response was 0.19 520/490.
